Results taken from patent US20250034182A1, “PHOSPHOLIPID COMPOUNDS AND METHODS OF MAKING AND USING THE SAME” (priority 2021, published 2025).

How the values were obtained:
Type in all cases: cell-based
[1] = system: dengue virus type 2 in Huh7 hepatoblastoma cells; assay: Dengue Virus-2 Huh-7 EC50 (Example W); details: MOI of 0.07, CPE, neutral red dye, read-out: Dengue Virus-2 Huh-7 EC50 (nM) (per Ex. W)
Protocol: (§1) Huh7 hepatoblastoma cells were seeded onto 96-well plates and incubated at 37° C. with 5% CO2 overnight. The plates were seeded at a cell concentration that will yield >70% confluent monolayers in each well after overnight incubation. Eight 3-fold serial dilutions of compounds were diluted in test media (MEM supplemented with 2% FBS and 50 μg/mL gentamicin). The highest test compound concentration was 50 μg/mL. 100 μL of each concentration was added to 5 test wells on the 96-well plate. Of these 5 test wells, 3 wells of each dilution were infected with dengue virus type 2, diluted in test media (approximately 2000 CCID50 per well for an MOI of 0.07). Test medium (100 μL) with no virus was added to 2 wells to represent the uninfected cytotoxicity controls. Six additional infected wells received 100 μL media alone as untreated virus controls. Further, 100 μL of media alone was added to 6 uninfected wells to serve as uninfected, untreated controls. Cultures were incubated at 37° C.+5% CO2 until >80% CPE is observed. After cytopathic effect (CPE) is observed microscopically, 0.011% neutral red dye was added for approximately 2 hours. The neutral red dye was removed and wells were rinsed once with PBS to remove residual, unincorporated dye. A 50:50 Sorensen citrate buffer/ethanol solution was added and incubated at room temperature for >30 minutes with agitation, followed by measurement of neutral red dye using a spectrophotometer at 540 nm. The resulting optical density measurement was converted to percent signal of the infected, untreated cell control normalizing to virus controls. EC50 and CC50 values were determined by linear regression analysis.

[2] = in vitro; details: human
Protocol: as §1

[3] = system: CAN97-83-GFP1 (A2a) hMPV in H1-HeLa cells; assay: hMPV H1-Hela EC50, anti-nucleoprotein ELISA (Example X); details: human metapneumovirus, 96 h, read-out: hMPV H1-Hela EC50 (nM) (per Ex. X)
Protocol: The human metapneumoavirus (hMPV) anti-viral assay is an anti-nucleoprotein ELISA performed in infected H1-HeLa cells. H1-HeLa cells were maintained in Dulbecco's Modified Eagle's Medium with high glucose (Gibco, Cat #: 11995073) supplemented with 10% FBS (HyClone, Cat #: SH303396.03), 100 units/mL penicillin and 100 μg/mL streptomycin (Gibco, Cat #: 15140122). One day before infection, H1-HeLa cells were seeded into 96-well plates (Corning, Cat. #: 3903) at 0.1 mL/well at 1.5×10^5 cells/mL in Opti-MEM (Gibco, Cat #: 31985070) supplemented with 2% FBS, and were incubated at 37° C. in a 100% humid atmosphere containing 5% (v/v) CO2 overnight. On the next day, CAN97-83-GFP1 (A2a) hMPV was diluted in Opti-MEM medium containing 200 μg/mL CaCl2) and 2 μg/mL TPCK treated trypsin and distributed to the 96-well plates at 0.1 mL/well for an MOI=0.1. Test compounds were distributed to each well using a HP D300e digital dispenser with a final volume of 200 µL/well. After the plates were centrifuged at 700 g for one hour at room temperature, they were maintained in a humidified chamber at 37-C with 5% (v/v) CO2 for 96 hours. After the incubation, the medium was removed, and the plates were fixed with 0.1 mL/well 1% formaldehyde for 15 min at room temperature. The fixative was removed, the plates were air dried for 30-60 minutes, and then permeabilized with 0.1 mL/well 0.5% Triton X-100 in PBS for five minutes at room temperature. Following permeabilization, the plates were washed once with 0.1 mL/well blocking buffer consisting of 10% FBS (HyClone, Cat #: SH303396.03), 5% dry milk (AmericanBio, Cat #: AB10109-01000), and 0.1% Tween 20 (EMD Millipore, Cat #655204) in PBS. The plates were blocked with 0.1 mL/well blocking buffer for 60 minutes at 37° C. afterward. The blocking buffer was removed and 0.05 mL/well human metapneumovirus nucleocapsid antibody (Sigma, Cat #MAB80121) diluted 1:500 in Blocking buffer was added and incubated for two hours at 37-C. The plates were then washed with 0.2 mL/well 0.1% Tween 20/PBS five times, followed by addition of 0.05 mL/well of horseradish peroxidase (HRP) conjugated goat anti-mouse IgG antibody (Fisher Scientific, Cat #501077607) at 1:2000 dilution in the blocking buffer. After one-hour incubation at 37-C, plates were washed five times with 0.2 mL/well 0.1% tween 20 in PBS. The HRP signals were developed by adding 0.1 mL/well of TMB reagent (Thermo Scientific, Cat #: ENN301) and incubating at room until the positive control was apparent. At that point, the reaction was stopped by adding 0.1 mL/well TMB stop solution (SeraCare, Cat #: 5150-0021). The absorbance was measured at 450 nm with an EnVision plate reader. The relative absorbance was calculated by normalizing the absorbance of the compound-treated groups to that of the DMSO-treated groups (set as 100%). EC50 values were calculated using a nonlinear four parameter variable slope regression model.

Q: For `CCCCCCCCCCCCCCCCCCCC[C@H](COP(=O)(O)OC[C@@]1(C#N)O[C@@H](c2ccc3c(N)ncnn23)[C@H](O)[C@@H]1O)OCc1cc(F)cc(C#N)c1` [Compound 34, ((2R,3S,4R)-5-(4-aminopyrrolo[2,1-f][1,2,4]triazin-7-yl)-2-cyano-3,4-dihydroxytetrahydrofuran-2-yl)methyl ((R)-2-((3-cyano-5-fluorobenzyl)oxy)docosyl) hydrogen phosphate], which EC50 [1] is on record?
A: 15000 nM

Q: What about the CC50 [2] of the same compound?
A: 15000 nM

Q: And the EC50 [3]?
A: 646 nM

Q: With `CCCCCCCCCCCCCCCCCCOCC(COc1cc(F)cc(C#N)c1)COP(=O)(O)OC[C@@]1(C#N)O[C@@H](c2ccc3c(N)ncnn23)[C@H](O)[C@@H]1O` (stereo partly drawn) [Compound 43, ((2R,3S,4R,5S)-5-(4-aminopyrrolo[2,1-f][1,2,4]triazin-7-yl)-2-cyano-3,4-dihydroxytetrahydrofuran-2-yl)methyl (3-(3-cyano-5-fluorophenoxy)-2-((octadecyloxy)methyl)propyl) hydrogen phosphate] as the compound, how does the EC50 [1] read?
A: 9700 nM

Q: What about the CC50 [2] of the same compound?
A: 14000 nM

Q: What about the EC50 [3] of the same compound?
A: 901 nM

Q: What does the source list for `CCCCCCCCCCCCCCCCCCOC[C@H](COP(=O)(O)OC[C@@]1(C#N)O[C@@H](c2ccc3c(N)ncnn23)[C@H](O)[C@@H]1O)Oc1ccc(C#N)c(OC(C)C)c1` [Compound 23, ((2R,3S,4R,5S)-5-(4-aminopyrrolo[2,1-f][1,2,4]triazin-7-yl)-2-cyano-3,4-dihydroxytetrahydrofuran-2-yl)methyl ((R)-2-(4-cyano-3-isopropoxyphenoxy)-3-(octadecyloxy)propyl) hydrogen phosphate]?
A: EC50 [1]: 8600 nM; CC50 [2]: 26000 nM; EC50 [3]: 156 nM

Q: What does the source list for `CCCCCCCCCCCCCCCCCCOC[C@H](COP(=O)(O)OC[C@@]1(C#N)O[C@@H](c2ccc3c(N)ncnn23)[C@H](O)[C@@H]1O)OCc1ccc(C#N)c(Cl)c1` [Compound 7, ((2R,3S,4R,5S)-5-(4-aminopyrrolo[2,1-f][1,2,4]triazin-7-yl)-2-cyano-3,4-dihydroxytetrahydrofuran-2-yl)methyl ((R)-2-((3-chloro-4-cyanobenzyl)oxy)-3-(octadecyloxy)propyl) hydrogen phosphate]?
A: EC50 [1]: 8700 nM; CC50 [2]: 19000 nM; EC50 [3]: 358 nM

Q: Which EC50 [1] does the source give for `CCCCCCCCCCCCCCCCCCC[C@H](COP(=O)(O)OC[C@@]1(C#N)O[C@@H](c2ccc3c(N)ncnn23)[C@H](O)[C@@H]1O)OCc1ccc(-n2cncn2)c(C#N)c1` [Compound 30, ((2R,3S,4R)-5-(4-aminopyrrolo[2,1-f][1,2,4]triazin-7-yl)-2-cyano-3,4-dihydroxytetrahydrofuran-2-yl)methyl ((R)-2-((3-cyano-4-(1H-1,2,4-triazol-1-yl)benzyl)oxy)henicosyl) hydrogen phosphate] here?
A: 1200 nM

Q: What about the CC50 [2] of the same compound?
A: 5900 nM

Q: What about the EC50 [3] of the same compound?
A: 188 nM

Q: Which results are given for `CCCCCCCCCCCCCCCCCCC[C@H](COP(=O)(O)OC[C@@]1(C#N)O[C@@H](c2ccc3c(N)ncnn23)[C@H](O)[C@@H]1O)OCc1ccc(C#N)c(OC(C)C)c1` [Compound 28, ((2R,3S,4R,5S)-5-(4-aminopyrrolo[2,1-f][1,2,4]triazin-7-yl)-2-cyano-3,4-dihydroxytetrahydrofuran-2-yl)methyl ((R)-2-((4-cyano-3-isopropoxybenzyl)oxy)henicosyl) hydrogen phosphate]?
A: EC50 [1]: 9500 nM; CC50 [2]: 19000 nM; EC50 [3]: 625 nM

Q: With `CCCCCCCCCCCCCCCCC[C@H](COP(=O)(O)OC[C@@]1(C#N)O[C@@H](c2ccc3c(N)ncnn23)[C@H](O)[C@@H]1O)OCc1cc(F)cc(C#N)c1` [Compound 36, ((2R,3S,4R,5S)-5-(4-aminopyrrolo[2,1-f][1,2,4]triazin-7-yl)-2-cyano-3,4-dihydroxytetrahydrofuran-2-yl)methyl ((R)-2-((3-cyano-5-fluorobenzyl)oxy)nonadecyl) hydrogen phosphate] as the compound, how does the EC50 [1] read?
A: 10000 nM

Q: And the CC50 [2]?
A: 17000 nM

Q: And the EC50 [3]?
A: 1100 nM

Q: Which results are given for `CCCCCCCCCCCCCCCCCCOC[C@@H](COP(=O)(O)OC[C@@]1(C#N)O[C@@H](c2ccc3c(N)ncnn23)[C@H](O)[C@@H]1O)Oc1ccc(C#N)nc1` [Compound 72, ((2R,3S,4R,5S)-5-(4-aminopyrrolo[2,1-f][1,2,4]triazin-7-yl)-2-cyano-3,4-dihydroxytetrahydrofuran-2-yl)methyl ((S)-2-((6-cyanopyridin-3-yl)oxy)-3-(octadecyloxy)propyl) hydrogen phosphate]?
A: EC50 [1]: 2400 nM; CC50 [2]: 17000 nM; EC50 [3]: 70 nM

Q: For `CCCCCCCCCCCCCCCCCC[C@H](COP(=O)(O)OC[C@@]1(C#N)O[C@@H](c2ccc3c(N)ncnn23)[C@H](O)[C@@H]1O)OCc1cc(Cl)cc(C#N)c1` [Compound 81, ((2R,3S,4R,5S)-5-(4-aminopyrrolo[2,1-f][1,2,4]triazin-7-yl)-2-cyano-3,4-dihydroxytetrahydrofuran-2-yl)methyl ((R)-2-((3-chloro-5-cyanobenzyl)oxy)icosyl) hydrogen phosphate], which EC50 [3] is on record?
A: 453 nM

Q: With `CCCCCCCCCCCCCCCC[C@@H](COP(=O)(O)OC[C@@]1(C#N)O[C@@H](c2ccc3c(N)ncnn23)[C@H](O)[C@@H]1O)OCc1cc(F)cc(C#N)c1` [Compound 79, ((2R,3S,4R,5S)-5-(4-aminopyrrolo[2,1-f][1,2,4]triazin-7-yl)-2-cyano-3,4-dihydroxytetrahydrofuran-2-yl)methyl ((S)-2-((3-cyano-5-fluorobenzyl)oxy)octadecyl) hydrogen phosphate] as the compound, how does the EC50 [3] read?
A: 1610 nM

Q: Which EC50 [3] does the source give for `CCCCCCCCCCCCCCCCCCC[C@H](COP(=O)(O)OC[C@@]1(C#N)O[C@@H](c2ccc3c(N)ncnn23)[C@H](O)[C@@H]1O)OCc1cc(Cl)cc(C#N)c1` [Compound 82, ((2R,3S,4R,5S)-5-(4-aminopyrrolo[2,1-f][1,2,4]triazin-7-yl)-2-cyano-3,4-dihydroxytetrahydrofuran-2-yl)methyl ((R)-2-((3-chloro-5-cyanobenzyl)oxy)henicosyl) hydrogen phosphate] here?
A: 1120 nM

Q: With `CCCCCCCCCCCCCCCCOC[C@@H](COP(=O)(O)OC[C@@]1(C#N)O[C@@H](c2ccc3c(N)ncnn23)[C@H](O)[C@@H]1O)OCc1cc(F)cc(C#N)c1` [Compound 88, ((2R,3S,4R,5S)-5-(4-aminopyrrolo[2,1-f][1,2,4]triazin-7-yl)-2-cyano-3,4-dihydroxytetrahydrofuran-2-yl)methyl ((S)-2-((3-cyano-5-fluorobenzyl)oxy)-3-(hexadecyloxy)propyl) hydrogen phosphate] as the compound, how does the EC50 [3] read?
A: 348 nM

Q: For `CCCCCCCCCCCCCCCCCC[C@H](COP(=O)(O)OC[C@@]1(C#N)O[C@@H](c2ccc3c(N)ncnn23)[C@H](O)[C@@H]1O)OCc1cc(F)cc(C#N)c1` [Compound 84, ((2R,3S,4R,5S)-5-(4-aminopyrrolo[2,1-f][1,2,4]triazin-7-yl)-2-cyano-3,4-dihydroxytetrahydrofuran-2-yl)methyl ((R)-2-((3-cyano-5-fluorobenzyl)oxy)icosyl) hydrogen phosphate], which EC50 [3] is on record?
A: 367 nM
